# Experiment: in vitro
# Settings: human, hela cells, % viability
Structure (SMILES),"viability at 28.5 h, 10 µM [%]","viability at 28.5 h, 10 µM (bulk resorufin, single well) [%]"
COc1ccc(S(=O)(=O)NC[C@H]2C[C@@H]3CC[N@]2C[C@@H]3CN2CCOCC2)cc1 [CBK288761],87.7,–
COc1ccc2nc(N3CCc4ccccc4C3)sc2c1 [CBK287493],102,–
O=C(c1ccncc1)N1CCc2ccccc21 [CBK200280],93.7,–
Cc1ccc(S(=O)(=O)NCCCC(=O)Oc2cc3oc(=O)c4c(c3cc2Cl)CCC4)cc1 [CBK264967],86.8,–
Cc1ccc(NC(=O)CN2C(=O)S/C(=C\c3ccc4c(c3)n(C)c(=O)n4C)C2=O)cc1 [CBK264501],112,–
COCCn1c(SC)nc2sc(-c3ccccc3)cc2c1=O [CBK295200],89.8,–
CCOC(=O)c1cnc(SC)nc1NCCc1c[nH]c2cc(OC)ccc12 [CBK092317],87.6,–
N#CCCN(C(=O)NCc1cccc(C(F)(F)F)c1)C1CCCCC1 [CBK156350],96.8,–
CCOc1ccc(C(=O)C2=C(O)C(=O)N(CCN(C)C)C2c2cccnc2)cc1Cl (centres unmarked) [CBK266585],96.5,–
CCOc1ccc(-c2cn(S(=O)(=O)c3cccc4nsnc34)nc2N)cc1 [CBK267883],102,–
CC(=O)Nc1ccc(S(=O)(=O)NCCSc2ccc(C)cc2)cc1 [CBK263563],111,–
Cc1cc(C(=O)NCc2cccnc2N(C)C2CCCCC2)[nH]n1 [CBK306668],104,–
C=CCOC(=O)N1CCC(C(=O)N(C)C(c2cccc(OC)c2)c2ccccn2)CC1 (centres unmarked) [CBK060244],91.5,–
COCC(O)CN(C)C(=O)c1ccc(Oc2cccc(Br)c2)nc1 (centres unmarked) [CBK304229],94,–
COCC(=O)N1CCc2sccc2C1c1ccc(NC(=O)c2ccc(OC)cc2)cc1 (centres unmarked) [CBK286467],103,–
COc1ccc(CCNC(=O)c2ccn[nH]2)cc1OC [CBK288234],92.2,–
O=C(Cn1ccc([N+](=O)[O-])n1)NCc1ccco1 [CBK268999],89.6,–
CC(=O)NCC1CCCN(Cc2c[nH]nc2-c2c(F)cccc2F)C1 (centres unmarked) [CBK306382],99.6,–
c1ccc(OCCOc2ccc(N3CCNCC3)nn2)cc1 [CBK022577F],109,–
N#C/C(=C/c1cc(Cl)c(OCc2ccc([N+](=O)[O-])cc2)c(Cl)c1)c1ccc(C(=O)O)cc1 [CBK269098],105,–
Clc1ccc(OCc2ccccc2)c(CNCCN2CCOCC2)c1 [CBK278162C],93.4,–
CCOc1cc(NC2CCN(C(=O)OC(C)(C)C)CC2)ncn1 [CBK306288],89.6,–

Structure (SMILES),"viability at 28.5 h, 10 µM [%]","viability at 28.5 h, 10 µM (bulk resorufin, single well) [%]"
Cc1ccc(C(=O)O)cc1NC(=O)CSc1nc2scc(C3CC3)c2c(=O)n1-c1ccccc1 [CBK297481],107,–
CCOC(=O)c1cc(S(=O)(=O)NC2CCN(C(=O)OCC)CC2)cn1C [CBK304665],90.1,–
Cc1cc(C(=O)Nc2cc(-c3nc4ncccc4o3)ccc2Cl)ccc1[N+](=O)[O-] [CBK268700],95.1,–
Cn1c(=O)c(-c2ccccc2)nc2ccccc21 [CBK016192],143,–
O=C(Nc1cccc(Br)c1)/C(=C\c1cccnc1)NC(=O)c1ccccc1 [CBK261450],85.8,–
COC(=O)CCc1ccc(S(=O)(=O)N2CCCN(Cc3ccc(Cl)c(C(F)(F)F)c3)CC2)cc1 [CBK062995],102,–
CC(NC(=O)CC(F)(F)F)c1nc(-c2ccncc2)cs1 (centres unmarked) [CBK306370],88.5,–
CC(C)(C)OC(=O)NCc1ccc(-c2cc(N3CCN(C(=O)c4ccco4)CC3)ncn2)cc1 [CBK091107],98.3,–
Fc1ccc2c3c([nH]c2c1)C1(CCN(Cc2cc(F)c(F)c(F)c2)CC1)NCC3 [CBK039688],108,–
Cc1ccc(Nc2nc(N)nc(CSc3nnc(-c4ccncc4)o3)n2)cc1 [CBK266464],97.7,–
O=C(O)C(c1c[nH]c2cc(F)ccc12)N1CCN(c2ccccc2)CC1 (centres unmarked) [CBK286675],102,–
Cc1ccc2c(c1)CC(=O)NC21CCN(C(=O)C2CC2C(=O)O)CC1 (centres unmarked) [CBK047258],103,–
Cc1ccnc(Nc2nc3ccccc3o2)n1 [CBK022772],87.5,–
COc1cc(CCN2C(=O)c3cccc4cccc(c34)C2=O)c(S(=O)(=O)N2CCCC2)cc1OC [CBK264947],102,–
NS(=O)(=O)c1ccc(-c2ccc(/C=C3\C(=O)NC(=O)N(c4ccc(Br)cc4)C3=O)o2)cc1 [CBK263423],–,93.2
O=C1CCc2cc(S(=O)(=O)Nc3ccc(OCc4ccccc4)cc3)ccc2N1 [CBK286365],90,–
COc1ccc(OC(C)C(=O)Nc2ccc(C(=O)O)cc2)cc1 (centres unmarked) [CBK263622],101,–
CCN(C(=O)c1cnc2n(c1=O)CCS2)c1ccccc1 [CBK287384],103,–
Nc1nnc(SCC(=O)N2CCN(C(c3ccccc3)c3ccccc3)CC2)n1-c1ccccc1 [CBK266696],108,–
CC(OC(=O)N1CCN(c2ccccc2)CC1)c1ccccc1 (centres unmarked) [CBK200243],104,–
COc1ccccc1N1CCN(CC(O)COCc2ccc3c(c2)OCO3)CC1 (centres unmarked) [CBK278323C],101,–
CN1CCN(C(=O)CNS(=O)(=O)c2ccc(Br)cc2)CC1 [CBK034478],101,–

Structure (SMILES),"viability at 28.5 h, 10 µM [%]","viability at 28.5 h, 10 µM (bulk resorufin, single well) [%]"
CCCS(=O)(=O)N1CCN(C(=O)c2cccnc2)CC1 [CBK264239],93.8,–
COC(=O)[C@@H](C)NC(=O)[C@@H]1CN(C(=O)c2cccc(F)c2)CCN1C(=O)C1CCCCC1 [CBK289621],87.4,–
COc1cc(C(=O)c2ccc(Cl)cc2)cc(Br)c1OCCN1CCOCC1 [CBK010131C],96.5,–
Cc1ccc(C2=NN(C(=N)SC3CC(=O)N(c4ccc(C(=O)O)cc4)C3=O)C(c3ccc(Cl)cc3)C2)cc1 (centres unmarked) [CBK262472],91.5,–
O=C(NCCN1CCCC1)c1ccc(N2CCN(C(=O)c3ccccc3C(F)(F)F)CC2)nn1 [CBK153217],105,–
CC(=O)Nc1ccc(CNC(=O)c2ccoc2C)cc1 [CBK305010],114,–
COCC(=O)N[C@H]1C[C@@H](Cc2cc(C(C)(C)C)on2)C1(C)C [CBK289244],106,–
Cc1nc(C2CCN(C(=O)CCc3ccno3)CC2)c2sccn12 [CBK282239],93.1,–
COCCn1cc(CN2CCC(CO)C2)c2ccccc21 (centres unmarked) [CBK282123],99.2,–
COc1nc2ccccc2nc1CCC(=O)O [CBK269356],89.1,–
CCOc1ccccc1N1CCN(C(C(=O)O)c2c[nH]c3ccc(CO)cc23)CC1 (centres unmarked) [CBK286816],90.1,–
O=C(Nc1cc(Oc2ccc(F)cc2)cc(Oc2cccnc2)c1)c1nn2c(C(F)(F)F)cc(-c3cccs3)nc2c1Cl [CBK262568],93.1,–
O=C(CNS(=O)(=O)c1ccc(Br)cc1)N1CCN(Cc2ccc3c(c2)OCO3)CC1 [CBK074358],98.1,–
O=C(c1cccc(NS(=O)(=O)c2cc(F)c(Br)cc2F)c1)N1CCOCC1 [CBK039007],86.7,–
O=C(Nc1ccccc1)[C@H]1O[C@H](CCN2CCN(c3ccccn3)CC2)CC[C@@H]1O [CBK288726],87.9,–
Cc1ccc(C(=O)O/C(=C/c2nc3ccccc3n2Cc2cccc3ccccc23)c2ccc(C)cc2)cc1 [CBK262485],108,–
c1coc(-c2cn3ccnc3c(NCCc3ccncc3)n2)c1 [CBK037333],93.5,–
NC(=O)c1cc(C2CCCN(CC(=O)NCc3cccs3)C2)n[nH]1 (centres unmarked) [CBK305361],86.6,–
O=C(O)C1C2C=CC(C2)C1C(=O)N1CCN(C(c2ccccc2)c2ccccc2)CC1 (centres unmarked) [CBK262659],95.2,–
CC(=O)Nc1ccc(OCCO)cc1 [CBK149724],86.6,–
O=C(Nc1ccc2c(c1)OCCO2)c1cnccn1 [CBK220830],92.8,–
CCN1CCN(CCNC(=O)Nc2ccccc2C)CC1 [CBK267842],108,–

Structure (SMILES),"viability at 28.5 h, 10 µM [%]","viability at 28.5 h, 10 µM (bulk resorufin, single well) [%]"
Cc1ccc(NC(=O)CSCc2nc3ccccc3[nH]2)cc1 [CBK267299],108,–
CNC(=O)C1(Cc2ccccc2-c2cccs2)CCN(C(=O)c2cccc(OC)c2)CC1 [CBK285907],85.7,–
O=C(c1ccco1)N1CCC(c2nnc3n2CCCCC3)CC1 [CBK284607],94.3,–
O=[N+]([O-])c1ccc(CCNCC(O)COc2cccc3c2CCCC3)cc1 (centres unmarked) [CBK003083],88.6,–
CCOC(=O)c1sc(-c2ccccc2)nc1C [CBK074204],87.5,–
CCCNC(=O)c1ccc(C)c(S(=O)(=O)Nc2ccc(C)cc2C)c1 [CBK269084],88.8,–
NC(=O)C1CCCN(S(=O)(=O)c2ccc(S(N)(=O)=O)cc2)C1 (centres unmarked) [CBK266312],96.2,–
O=C(c1cnc[nH]1)N1CCn2nc(C(O)Cc3ccccc3)cc2C1 (centres unmarked) [CBK307558],109,–
CCNC(=O)C(C)NC(=O)c1cnn(-c2ccc(Br)cc2)c1C (centres unmarked) [CBK305021],79.3,–
COCc1nnc(Sc2nccnc2NC(C)C)s1 [CBK115204],99.6,–
CCOc1ccccc1C(=O)N1CCC(Cc2ccccc2-c2ccccc2)(C(N)=O)CC1 [CBK285910],89.6,–
Cc1ccnn1CCNC(=O)C(C)Cc1cccs1 (centres unmarked) [CBK281633],109,–
FC(F)c1cc([C@@H]2CN(CC3CCOC3)C[C@H]2c2ccccc2)n[nH]1 (some centres unmarked) [CBK285430],98.5,–
CCOC(=O)c1sc(Cl)nc1C(F)(F)F [CBK026746],103,–
CCc1c(C(=O)Nc2ccc3nc(C)cn3c2)cnc2cc(O)nn12 [CBK291178],92.7,–
Cc1cc(OC(C)C(=O)Nc2ccccc2C(=O)N2CCCCC2)ccc1Cl (centres unmarked) [CBK269696],104,–
c1ccc2c(CCN3CCN(c4nccnc4OC4CCCCC4)CC3)c[nH]c2c1 [CBK082847T],100,–
O=C(O)COc1c(-c2ccco2)oc2ccccc2c1=O [CBK269262],96.9,–
Cc1ccc(/N=N/c2c(O)c(C(=O)Nc3ccc4c(c3)c(=O)[nH]c3ccccc34)cc3ccccc23)c(Cl)c1 [CBK262306],92.7,–
Cc1ccc(S(=O)(=O)N2CCN(CCC(=O)O)CC2)cc1C [CBK269416],93.3,–

# From paper PMC12040169 (PLOS Biology, 2025)
